Consider one molecule from patent US20190000081A1, “PLANT DISEASE CONTROL COMPOSITION AND PLANT DISEASE CONTROL METHOD” (SUMITOMO CHEMICAL COMPANY, LIMITED, priority 2015, published 2019).

The subject of assay [1] is wheat leaf blight fungus. In words: Test Example 3: growth of wheat leaf blight fungus in YBG medium, microtiter plate, absorbance at 550 nm. The format is cell-based, Mycosphaerella graminicola. To be noted: single use, 18° C., six days. The protocol:
The present compound 1-1 or the present compound 2-1 was dissolved into dimethyl sulfoxide such that each concentration of the present compound 1-1 or the present compound 2-1 was adjusted to one hundred fifty times as much as the concentration indicated in the below-mentioned Table 5. The resultant agent solution was dispensed into a microtiter plate (with 96 wells) in 1 μl portion thereof per well. One hundred forty nine (149) μl of YBG medium. (which was prepared by dissolving 10 g of yeast extract, 10 g of Bacto Peptone, and 20 mL of glycerol into 1 L of water, followed by sterilizing the medium) was dispensed into the wells to which the agent solution(s) was/were dispensed. The plate was cultivated at 18° C. for six days, thereby allowing wheat leaf blight fungus to undergo proliferation, and the absorbance at 550 nm of each well of the micro titer plate was then measured to examine a degree of growth of the wheat leaf blight fungus (hereinafter referred to as “treated group”).
Whereas, wheat leaf blight fungus was proliferated similarly to the case of the treated group except that dimethyl sulfoxide was used instead of the agent solution, and the degree of the growth was examined (hereinafter referred to as “untreated group”). The efficacy was calculated from the respective obtained degree of growth by the below-mentioned “Equation 1”.
Efficacy (%)=100×(X−Y)/X Equation 1 […]

Assay [2] relates to wheat rust fungus (Puccinia recondita). Kind of assay: Test Example 4: foliar spray of flowable formulations on potted wheat, wheat rust lesion area. The format is in vivo. As to conditions: wheat (cultivar. Shirogane), single use. As to the method: Five (5) parts of the present compound 1-1, 35 parts of a mixture of white carbon and ammonium polyoxyethylene alkyl ether sulfate (the weight ratio of 1:1) and […] of water were mixed, and the mixture was then finely-ground by a wet grinding method to obtain a flowable formulation comprising the present compound 1-1. Separately, the flowable formulation comprising the present compound 2-1 was prepared according to the above-mentioned similar method except that the present compound 2-1 was used instead of the present compound 1-1 to form a flowable formulation comprising the present compound 2-1.
Each of the above-mentioned respective flowable formulations, and the flowable formulation comprising the present compound 1-1 and the present compound 2-1 that was prepared according to the above-mentioned Formulation Example 3 was diluted with water such that each concentration of the respective compounds in the dilution solutions was adjusted to that indicated in Table 6, to prepare the dilution solutions, respectively.
A plastic pot was filled with soil, and thereto wheat (cultivar. Shirogane) was seeded, and the plants were grown in a greenhouse for ten days. […]
From each of the lesion area of the treated group and the untreated group, respectively, the efficacy of the treated group was calculated by the below-mentioned Equation 2. […]

Regarding `Cc1nnc(Cl)c(-c2c(F)cccc2F)c1-c1ccccc1` [Present compound 1-1], the “Efficacy (%)” value in assay [1] (concentration in medium 0.005 ppm) turned out to be 4%; in assay [1] (concentration in medium 0.1 ppm) it was 75%; in assay [2] (concentration 0.0001 ppm), 20%; in assay [2] (concentration 0.01 ppm), 31%.
